Experimental data: patent US4659691A, “Novel cyclic Hexapeptide LHRH antagonists” (Merck & Co., Inc., priority 1985, dated 1987)
Where a SMILES comes first, the peptide text is derived from it. [ ]: non-standard residue; d: D form.

System: rat pituitary cells
Assay: Isolated rat pituitary cell culture system: antagonism of LH-RH-stimulated LH release
Type: cell-based
Procedure: Cyclic hexapeptides of the present invention are evaluated as antagonists of LH-RH in an in vitro pituitary cell culture system. This assay system is described in Vale and Brant, Methods Enzymol, 37, 82 (1975), hereby incorporated by reference for this purpose.
For purposes of illustration, the data for cyclo-[Tyr-D-Trp-Leu-Arg-Trp-Pro] (5) in this assay are presented.
At a dose range of 10^-5 to 10^-9 M, compound 5 was tested in combination with a single dose of LHRH (luteinizing hormone release hormone) on rat pituitary cells in vitro for 60 minutes.

## CC(C)C[C@@H]1NC(=O)[C@@H](Cc2c[nH]c3ccccc23)NC(=O)[C@H](Cc2ccc(O)cc2)NC(=O)[C@@H]2CCCN2C(=O)[C@H](Cc2c[nH]c3ccccc23)NC(=O)[C@H](CCCNC(=N)N)NC1=O [Compound 5, cyclo-(Tyr-D-Trp-Leu-Arg-Trp-Pro)] (cyclo(LRWPY[dW]))
All lower doses of compound 5 (below 10^-5 M) in the presence of 5×10^-7, 10^-7, 5×10^-8 and 10^-8 M LHRH
  reduction of LH release: essentially ineffective
Compound 5 at 10^-5 M, LHRH at 10^-6, 5×10^-7, 5×10^-8, 10^-8, 5×10^-9, 10^-9 and 5×10^-10 M, 60 minutes
  antagonism to LHRH: significantly antagonistic
Compound 5 at 10^-7, 10^-8 and 10^-9 M in the presence of 10^-6 M LHRH, 60 minutes
  reduction of LH release: significantly reduced LH release
Compound 5 at 10^-7 M, no LHRH
  effect on LH release (compound alone): does not affect LH release
Greatest antagonistic effect at lower doses of LHRH
  overall conclusion on LHRH antagonism: antagonistic to LHRH
In the presence of 5×10^-9, 10^-9 and 5×10^-10 M LHRH, greatest antagonism at 10^-9 M LHRH
  inhibition of LH release, dose relation: significant dose related inhibition
